The target of experiment [1] is T1, muscarinic M3 receptor (Rattus norvegicus, UniProt P08483). As to the kind of experiment: in vivo. Set-up: from tissue; host or cells: living rat, airways. To be noted: iv, 5 min, read-out: Airway contraction ID50. The procedure:
(§1) Tests for antagonism against muscarinic M3 receptor (in vivo)
1) Tests for bronchodilation in rats
Eight- to eleven-weeks-old male rats of the Sprague-Dawley strain, weighing 300-400 g, were anesthetized with urethane (750 mg/kg, i.p.) and a-chloralose (37.5 mg/kg, i.p.). A bronchus was intubated, and the right jugular vein was cannulated for drug administration. […] To evoke an increase in airway resistance, acetylcholine (50 μg/kg, i.v.) was administered to the animals. Mean values for the acetylcholine-induced increase in airway resistance as measured five minutes before (control) and five minutes after test compound administration were calculated and the results were expressed as percentages of the control response. The ID50 value was calculated from the dose-response curve of the test compound using probit analysis and defined as the drug dose that inhibited the acetylcholine-induced increase in airway resistance in the control group by 50 %.

In experiment [2] the target is T1, muscarinic M3 receptor. As to the kind of experiment: Intravesical bladder pressure in rats. The class given is in vivo. Set-up: from tissue. To be noted: i.v., 25% inhibition of peak intravesical bladder pressure. As to the method:
as §1
4) Tests for intravesical bladder pressure in rats
These tests were performed according to the method of Maggi et al. (Drug Dev. Res. 10: 157-170, 1987). Briefly, eight- to ten-weeks-old male rats of the Sprague-Dawley strain, weighing 330-370 g, were anesthetized by subcutaneous administration of urethane (1 g/kg) and α-chloralose (50 mg/kg), and the right jugular vein was cannulated for drug administration. The body temperature was kept constant by means of a heating pad maintained at 37° C. Through a midline incision of the abdomen, the urinary bladder was exposed and emptied of urine by the application of a slight manual pressure. A 20-gauge needle was inserted through the apex of the bladder dome by 3-4 mm into its lumen. The needle had previously been connected to a pressure transducer and an infusion pump by means of polyethylene tubing and the whole system filled with saline. After a 30-minutes equilibration period at zero volume, saline was infused (2.8 ml/hr) until a coordinated sustained contraction, reflecting the peak intravesical bladder pressure, occured. The bladder was then emptied manually and allowed to rest for five minutes. PvesP was defined as the difference between the maximum and resting bladder pressures. This procedure was repeated at least five times and the evaluation of a test compound was carried out in the animals in which a stable peak intravesical bladder pressure was recorded. The drug potency (ID25 ) was determined after intravenous administration of the test compound during the rest period. Five minutes after drug administration, the infusion of saline was started to induce micturition contraction and the peak intravesical bladder pressure was recorded. The depression in peak intravesical bladder pressure was expressed as a percent of the control peak intravesical bladder pressure observed before administration of the test compound. The ID25 value, calculated by probit analysis, was defined as the drug dose that inhibited the control peak intravesical bladder pressure by 25%.

The target of experiment [3] is T2, airway M3 receptors (trachea) (Rattus norvegicus, UniProt P08483).
T2 construct: the trachea was excised; from tissue; host or cells: isolated rat trachea
T2 sequence (P08483 whole entry): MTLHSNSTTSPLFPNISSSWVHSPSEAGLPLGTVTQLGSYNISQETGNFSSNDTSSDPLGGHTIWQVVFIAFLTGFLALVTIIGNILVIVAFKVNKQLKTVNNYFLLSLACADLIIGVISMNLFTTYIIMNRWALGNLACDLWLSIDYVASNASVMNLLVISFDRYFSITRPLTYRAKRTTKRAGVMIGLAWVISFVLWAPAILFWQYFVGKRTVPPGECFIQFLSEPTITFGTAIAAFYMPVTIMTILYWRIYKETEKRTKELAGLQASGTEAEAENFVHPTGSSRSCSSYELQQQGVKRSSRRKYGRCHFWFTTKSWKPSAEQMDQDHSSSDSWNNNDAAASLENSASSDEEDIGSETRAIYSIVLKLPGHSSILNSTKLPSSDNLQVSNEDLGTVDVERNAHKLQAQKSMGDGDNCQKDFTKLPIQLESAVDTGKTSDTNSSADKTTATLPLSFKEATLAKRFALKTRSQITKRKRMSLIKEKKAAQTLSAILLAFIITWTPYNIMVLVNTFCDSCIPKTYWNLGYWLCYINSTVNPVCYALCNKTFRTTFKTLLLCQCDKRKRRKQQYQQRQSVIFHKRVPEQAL
The experiment in a line: Antagonism against airway M3 receptors in an isolated rat trachea. As to the method:
3) Tests for antagonism against the airway M3 receptors in an isolated rat trachea
These tests were performed according to an ordinary method. A male SD strain rat (weighing 300-500 g) was killed by exsanguination, and the trachea was excised. Annular segments (2 mm wide) were cut out from the trachea and cut open at the anterior cartilage part to make transversely sectioned trachea preparations. A preparation was suspended in a Magnus tube filled with 5 ml of Krebs-Henseleit nutrient solution (gassed with 95% O2 -5% CO2 and kept at 32° C.) with an initial tension of 1.0 g and a resting tension of 0.6 g. The tension of the preparation was recorded isometrically. After being equilibrated for an hour, the preparation was made to contract twice by treatment with 10^-4 M carbachol, and the second contraction induced by carbachol was used as the reference contraction. After the preparation was washed with fresh solution to make a return to the base line, a test compound was administered thereto (or no treatment was made). Ten minutes later, carbachol (10^-8 to 10^-3 M) was cumulatively administered in three-fold increasing doses to obtain a dose-response curve. The dose-response curve was constructed by expressing responses as percentages based on the reference contraction of the preparation. The antagonistic potency (KB value) of the test compound (i.e., a compound in accordance with the present invention) was determined from the degree of shift of the dose-response curve obtained by treatment with the test compound.

The next experiment addresses T3, bladder M3 receptors (Rattus norvegicus, UniProt P08483).
T3 construct: the bladder was excised; from tissue; host or cells: isolated rat bladder
The experiment in a line: Antagonism against bladder M3 receptors in an isolated rat bladder. To be noted: in vitro, agonist carbachol. The procedure: 5) Tests for antagonism against the bladder M3 receptors in an isolated rat bladder
These tests were performed according to an ordinary method. A male SD strain rat (weighing 200-400 g) was killed by exsanguination, and the bladder was excised. This bladder axially cut into eight parts to make bladder preparations. A preparation was suspended in a Magnus tube filled with 5 ml of Krebs-Henseleit nutrient solution (gassed with 95% O2 -5% CO2 and kept at 32° C.) with an initial tension of 0.5 g. The tension of the preparation was recorded isometrically. After being equilibrated for an hour, the preparation was made to contract twice by treatment with 10^-4 M carbachol, and the second contraction induced by carbachol was used as the reference contraction. After the preparation was washed with fresh solution to make a return to the base line, a test compound was administered thereto (or no treatment was made). Ten minutes later, carbachol (10^-8 to 10^-3 M) was cumulatively administered from the lower-most concentration in three-fold increasing doses to obtain a dose-response curve. The dose-response curve was constructed by expressing responses as percentages based on the reference contraction of the preparation. The antagonistic potency (KB value) of the test compound was determined from the degree of shift of the dose-response curve obtained by treatment with the test compound.

Molecules are shown by their SMILES.

T1 sequence (P08483 whole entry): as above
T3 sequence (P08483 whole entry): as above

Take `CC(C)=CCCN1CCC(NC(=O)C(O)(c2ccccc2)C2CCC2)CC1` (stereo not drawn) [Example 1, N-[1-(4-methyl-3-pentenyl)-piperidin-4-yl]-2-cyclobutyl-2-hydroxy-2-phenylacetamide]: the ED50 at muscarinic M3 receptor [1] worked out at 0.023 mg/kg. For the same compound, the “Urinating contraction ID25” value on muscarinic M3 receptor [2] is listed as 1.3 mg/kg i.v. Besides, the Kb in experiment [3] (in vitro, isolated rat trachea, agonist carbachol) came to 19 nM; on bladder M3 receptors it was 31 nM. The “M2/M3 *” value in experiment [3] (ratio of KB, right atrium M2 over trachea M3 (* Trachea M3)) stood at 79. In experiment [3] (ratio of KB, vas deferens M1 over trachea M3 (* Trachea M3)), the “M1/M3 *” value is 6.3.

The record behind these values is US5750540A, “1,4-di-substituted piperidine derivatives” (Banyu Pharmaceutical Co., Ltd., priority 1995, dated 1998).
